Where a name gives a salt, the structure may show the parent alone. Read-outs that look alike come from different tables or passages of the source.
Tested on: HBV rcDNA in HepDE19 cells
Test: HepDE19 assay with bDNA quantitation of HBV rcDNA
Format: cell-based, hepatitis B virus (HBV)
Protocol: HepDE19 Assay with bDNA Quantitation of HBV rcDNA:
HepDE19 cell culture system is a HepG2 (human hepatocarcinoma) derived cell line that supports HBV DNA replication and cccDNA formation in a tetracycline (Tet)-regulated manner and produces HBV rcDNA and a detectable reporter molecule dependent on the production and maintenance of cccDNA (Guo, et al., 2007, J. Virol. 81:12472-12484).
HepDE19 (50,000 cells/well) were plated in 96 well collagen-coated tissue-culture treated microtiter plates in DMEM/F12 medium supplemented with 10% fetal bovine serum, 1% penicillin-streptomycin and 1 μg/mL tetracycline and incubated in a humidified incubator at 37° C. and 5% CO2 overnight. Next day, the cells were switched to fresh medium without tetracycline and incubated for 4 hours at 37° C. and 5% CO2. The cells were treated with fresh Tet-free medium with compounds at concentrations starting at 25 μM and a serial, ½ log, 8-point, titration series in duplicate. The final DMSO concentration in the assay was 0.5%. The plates were incubated for 7 days in a humidified incubator at 37° C. and 5% CO2. Following a 7 day-incubation, the level of rcDNA present in the inhibitor-treated wells was measured using a Quantigene 2.0 bDNA assay kit (Affymetrix, Santa Clara, Calif.) with HBV specific custom probe set and manufacturers instructions. Concurrently, the effect of compounds on cell viability was assessed using replicate plates, plated at a density of 5,000 cells/well and incubated for 4 days, to determine the ATP content as a measure of cell viability using the cell-titer glo reagent (CTG; Promega Corporation, Madison, Wis.) as per manufacturer's instructions. The plates were read using a Victor luminescence plate reader (PerkinElmer Model 1420 Multilabel counter) and the relative luminescence units (RLU) data generated from each well was calculated as % inhibition of the untreated control wells and analyzed using XL-Fit module in Microsoft Excel to determine EC50 and EC90 (bDNA) and CC50 (CTG) values using a 4-parameter curve fitting algorithm.
Representative compounds of the invention were tested for their ability to inhibit formation of relaxed circular DNA (rcDNA) in a HepDE19 assay, as described elsewhere herein.

[1] = Hepatitis B virus, HepDE19, 168 h, HepDE19 cells, 7 day incubation, rcDNA by Quantigene 2.0 bDNA assay, read-out: DE-19 bDNA EC50
[2] = HepDE19 cells, 7 day incubation, rcDNA by Quantigene 2.0 bDNA assay, read-out: DE-19 bDNA EC50
[3] = Hepatitis B virus, HepDE19, 168 h, read-out: DE-19 bDNA EC50, HepDE19 cells, 7 day incubation, rcDNA by Quantigene 2.0 bDNA assay

Structure (SMILES)	EC50 [1] [µM]	other results
O=C(Nc1ccc(F)c(F)c1)c1c(F)ccc2c1OCC[C@@H]2Nc1ncccn1 [Compound 56, (S)—N-(3,4-Difluorophenyl)-7-fluoro-4-(pyrimidin-2-ylamino)chromane-8-carboxamide]	2.5	–
COC(=O)N[C@H]1CCSc2c(C(=O)Nc3ccc(F)c(Cl)c3)ccc(F)c21 [Compound 174, Methyl (S)-(8-((3-chloro-4-fluorophenyl)carbamoyl)-5-fluorothiochroman-4-yl)carbamate]	1.6	–
COc1ccnc(N[C@H]2CCOc3c(C(=O)Nc4ccc(F)c(F)c4)cccc32)n1 [Compound 54, (S)—N-(3,4-Difluorophenyl)-4-((4-methoxypyrimidin-2-yl)amino)chromane-8-carboxamide]	4.1	–
COC1CCOc2c(C(=O)Nc3ccc(F)c(F)c3)cccc21 (single isomer, unassigned) [Compound 6, N-(3,4-difluorophenyl)-4-methoxychromane-8-carboxamide]	–	EC50 [2]: 4.3 µM
Cn1nccc1CN[C@H]1CCOc2c(C(=O)Nc3ccc(F)c(F)c3)cccc21 [Compound 101]	21	–
Cc1ccnc(N[C@H]2CCOc3c(C(=O)Nc4ccc(F)c(F)c4)cccc32)n1 [Compound 57, (S)—N-(3,4-Difluorophenyl)-4-((4-methylpyrimidin-2-yl)amino)chromane-8-carboxamide]	3.4	–
CNC(=O)CC1CCOc2c(C(=O)Nc3ccc(F)c(F)c3)cccc21 (single isomer, unassigned) [Compound 131, N-(3,4-difluorophenyl)-4-(2-(methylamino)-2-oxoethyl) chromane-8-carboxamide]	20	–
COc1cnc(N[C@H]2CCOc3c(C(=O)Nc4ccc(F)c(F)c4)cccc32)nc1 [Compound 55, (S)—N-(3,4-Difluorophenyl)-4-((5-methoxypyrimidin-2-yl)amino)chromane-8-carboxamide]	2	–
COC(=O)N[C@H]1CCOc2c(C(=O)Nc3ccc(F)c(F)c3)c(F)cc(F)c21 [Compound 115, Methyl (S)-(8-((3,4-difluorophenyl)carbamoyl)-5,7-difluorochroman-4-yl)carbamate]	–	EC50 [3]: 0.8 µM
CCCOC(=O)N[C@H]1CCOc2c(C(=O)Nc3ccc(F)c(F)c3)cccc21 [Compound 21, Propyl (8-((3,4-difluorophenyl)carbamoyl)chroman-4-yl)carbamate]	–	EC50 [3]: 22 µM
COC(=O)N[C@H]1CCOc2c(C(=O)Nc3ccc(F)c(F)c3)cc(N)cc21 [Compound 148, Methyl (S)-(6-amino-8-((3,4-difluorophenyl)carbamoyl)chroman-4-yl)carbamate]	6.4	–
O=C(N[C@H]1CCOc2c(C(=O)Nc3ccc(F)c(Cl)c3)ccc(F)c21)OCCN1CCCC1=O [Compound 159, 2-(2-Oxopyrrolidin-1-yl)ethyl (S)-(5-fluoro-8-((3-chloro-4-fluorophenyl)carbamoyl)chroman-4-yl)carbamate]	0.41	–
CN1CCC(COC(=O)N[C@H]2CCOc3c(C(=O)Nc4ccc(F)c(F)c4)cccc32)CC1 [Compound 95, (1-methylpiperidin-4-yl)methyl (S)-(8-((3,4-difluorophenyl)carbamoyl)chroman-4-yl)carbamate]	24	–
O=C(Nc1ccc(F)c(F)c1)c1cccc2c1OCCC2c1ccncc1 (single isomer, unassigned) [Compound 70, N-(3,4-Difluorophenyl)-4-(pyridin-4-yl)chromane-8-carboxamide]	–	EC50 [2]: 23 µM
CNC(=O)N[C@H]1CCOc2c(C(=O)Nc3ccc(F)c(F)c3)cc(N)cc21 [Compound 149, (S)-6-Amino-N-(3,4-difluorophenyl)-4-(3-methylureido)chromane-8-carboxamide]	20	–
CN1CCC(NC(=O)OCc2ccccn2)c2cccc(C(=O)Nc3ccc(F)c(F)c3)c21 (single isomer, unassigned) [Compound 181, Pyridin-2-ylmethyl (8-((3,4-difluorophenyl)carbamoyl)-1-methyl-1,2,3,4-tetrahydroquinolin-4-yl)carbamate]	–	EC50 [2]: 2.5 µM
COC(=O)N[C@H]1CCOc2c(C(=O)Nc3cccc(C(F)(F)F)c3)cccc21 [Compound 49]	–	EC50 [3]: 11 µM
COC(=O)N[C@H]1CCOc2c(C(=O)Nc3ccc(F)c(F)c3)ccc(Cl)c21 [Compound 125, Methyl (S)-(5-chloro-8-((3,4-difluorophenyl)carbamoyl)chroman-4-yl)carbamate]	–	EC50 [3]: 2.3 µM

Structure (SMILES)	EC50 [1] [µM]	other results
CC(=O)N[C@H]1CCOc2c(C(=O)Nc3ccc(F)c(C)c3)ccc(F)c21 [Compound 121, (4S)-4-Acetamido-5-fluoro-N-(4-fluoro-3-methylphenyl)-3,4-dihydro-2H-1-benzopyran-8-carboxamide]	0.62	–
O=C(N[C@H]1CCOc2c(C(=O)Nc3ccc(F)c(F)c3)cccc21)OCC1CCNCC1 [Compound 107, piperidin-4-ylmethyl (S)-(8-((3,4-difluorophenyl)carbamoyl)chroman-4-yl)carbamate]	21	–
O=C(Nc1cccc(Cl)c1)c1cccc2c1OCCC2 [Compound 1, N-(3-chlorophenyl)chromane-8-carboxamide]	23	–
COC(=O)N[C@H]1CCOc2c(C(=O)Nc3ccc(F)c(Cl)c3)ccc(F)c21 [Compound 91, Methyl (S)-(8-((3-chloro-4-fluorophenyl)carbamoyl)-5-fluorochroman-4-yl)carbamate]	–	EC50 [3]: 0.2 µM
COc1ccc(COC(=O)N[C@H]2CCOc3c(C(=O)Nc4ccc(F)c(F)c4)cccc32)nc1 [Compound 102, (5-Methoxypyridin-2-yl)methyl (S)-(8-((3,4-difluorophenyl)carbamoyl)chroman-4-yl)carbamate hydrochloride]	–	EC50 [3]: 2.5 µM
O=C(Nc1ccc(F)c(F)c1)c1cccc2c1OCC[C@H]2NC(=O)N1CCCC1 [Compound 24, (R)-N-(8-((3,4-difluorophenyl)carbamoyl)chroman-4-yl)pyrrolidine-1-carboxamide]	24	–
O=C(Nc1ccc(F)c(F)c1)c1cccc2c1OCCC2c1ccccc1 (centres unmarked) [Compound 62, N-(3,4-difluorophenyl)-4-phenylchromane-8-carboxamide]	4.9	–
O=C(N[C@H]1CCOc2c(C(=O)Nc3ccc(F)c(F)c3)cccc21)OC1CCOC1 (single isomer, unassigned) [Compound 26, Tetrahydrofuran-3-yl-(8-((3,4-difluorophenyl)carbamoyl)chroman-4-yl)carbamate]	–	EC50 (read-out: DE-19 bDNA EC50, HepDE19 cells, 7 day incubation, rcDNA by Quantigene 2.0 bDNA assay): 7.4 µM
O=C1CCOc2c1cccc2C(=O)Nc1ccc(F)c(F)c1 [Compound 2, N-(3,4-difluorophenyl)-4-oxochromane-8-carboxamide]	2.3	–
COC(=O)N[C@H]1CCOc2c(C(=O)Nc3cccc(C#N)c3)cccc21 [Compound 43, Methyl (S)-(8-((3-cyanophenyl)carbamoyl)chroman-4-yl)carbamate]	8.7	–
CN(C)C(=O)CC1CCOc2c(C(=O)Nc3ccc(F)c(F)c3)cccc21 (centres unmarked) [Compound 133, N-(3,4-difluorophenyl)-4-(2-(dimethylamino)-2-oxoethyl) chromane-8-carboxamide]	14	–
CNC(=O)N[C@H]1CCOc2c(C(=O)Nc3ccc(F)c(F)c3)c(F)cc(F)c21 [Compound 116, (S)—N-(3,4-Difluorophenyl)-5,7-difluoro-4-(3-methylureido)chromane-8-carboxamide]	–	EC50 [3]: 1.8 µM
COC(=O)N[C@H]1CCOc2c1ccc(F)c2C(=O)Nc1ccc(F)c(F)c1 [Compound 47, Methyl (8-((3,4-difluorophenyl)carbamoyl)-7-fluorochroman-4-yl)carbamate]	–	EC50 [3]: 3.6 µM
COC(=O)NC1CCNc2c(C(=O)Nc3ccc(F)c(Cl)c3)cccc21 (centres unmarked) [Compound 176, methyl (8-((3-chloro-4-fluorophenyl)carbamoyl)-1,2,3,4-tetrahydroquinolin-4-yl)carbamate]	23	–
CN1CCC(COC(=O)N[C@H]2CCOc3c(C(=O)Nc4ccc(F)c(F)c4)cccc32)C1 (stereo partly drawn) [Compound 127, (1-methylpyrrolidin-3-yl)methyl ((S)-8-((3,4-difluorophenyl)carbamoyl)chroman-4-yl)carbamate]	24	–
O=C(Nc1ccc(F)c(F)c1)c1cccc2c1OCC[C@H]2O [Compound 4, (R)-N-(3,4-difluorophenyl)-4-hydroxychromane-8-carboxamide]	2.2	–
CC(C)OC(=O)N[C@H]1CCOc2c(C(=O)Nc3ccc(F)c(F)c3)cccc21 [Compound 20, Isopropyl (8-((3,4-difluorophenyl)carbamoyl)chroman-4-yl)carbamate]	–	EC50 [3]: 14 µM
